{
  "source": "patent US7166299B2",
  "about": "“Preparation of aqueous clear solution dosage forms with bile acids” (priority 1998, dated 2007)",
  "test": "Solution stability test (HPLC) of UDCA, branched chained amino acids and maltodextrin solution, Example IV",
  "type": "physicochemical",
  "method": "The stability tests were conducted on three different aqueous solution systems: […]. A bile acid and a high molecular weight aqueous soluble starch conversion product were combined in aqueous solution according to Example I, with results as shown in Tables 1A and 1B. • 2. Mixed bile acids and high molecular weight aqueous soluble starch conversion products were combined in aqueous solution according to Example II, with results as shown in Table 2. • 3. Bile acids, high molecular weight aqueous soluble starch conversion products and branched chained amino acids (e.g. leucine, isoleucine, valine, or other amino acid with a branched side chain) were combined in aqueous solution according to Example IV, with results as shown in Tables 3A through 3F. The stability tests were performed with HPLC and microscope light at various pH conditions under the normal and accelerated conditions. Accelerated conditions for testing pharmaceutical compositions have been described (Remington, The Science and Practice of Pharmacy, 19th ed., p. 640). […] Thus, the formulations of the examples are suitable for preparing a commercial liquid dosage form. […] Some formulations remain stable for over 2 years. Moreover, the solution stability tests were conducted on the aqueous solution dosage forms comprising the mixture of aqueous soluble UDCA, branched chained amino acid (leucine, isoleucine, valine) and maltodextrin according to example IV as a typical example of the solution dosage forms in which bile acid as a therapeutically active agent, as an adjuvant or carrier, pharmaceutically active agent, or enhancer of solubility, and high molecular weight aqueous soluble starch conversion products or soluble non-starch polysaccharides are dissolved. According to the test results, there is no discoloration, no clarity changes, and no precipitation. […] In the tables, the concentration of the indicated bile acid salt for each of the three numbered trials and the average thereof is reported on each line. The percentage indicates the relative concentration of the bile acid salt after incubation for a certain amount of time in comparison with the initial concentration. 85 mL of the aqueous solution in which soluble UDCA is dissolved was prepared, and then maltodextrin was added into the clear solution. Into the resulting clear solution, branched amino acids were added with adjusting the pH (4–7) with agitation and then sweetener, preservatives, and flavoring agent were added. Purified water was added to adjust the total volume to be 100 mL. Tables 3A to 3F show stability test results over time of formulation prepared with amino acids according to Example IV. All stability tests were conducted at 50° C. Stability test results at pH 1 (Table 3A), pH 3 (Table 3B), pH 5 (Table 3C), pH 7 (Table 3D), pH 9 (Table 3E), and pH 10 (Table 3F) are shown.",
  "note": "Several values for one entry are separate records, joined by “and”; a condition that tells them apart may be missing. Equal values may be shown once.",
  "data": [
    {"smiles": "CC(C)[C@H](N)C(=O)O", "note": "[Val, valine]", "values": [
      {"measurement": "Percentage of day 0 concentration", "setting": "Table 3A: pH1, 50° C., day 0", "value": 100.0, "unit": "%"},
      {"measurement": "concentration by HPLC, Average", "setting": "Table 3A: pH1, 50° C., day 0", "value": 0.471},
      {"measurement": "concentration by HPLC, trials #1-#3", "setting": "Table 3A: pH1, 50° C., day 0", "value": "0.506 and 0.448 and 0.460"},
      {"measurement": "Percentage of day 0 concentration", "setting": "Table 3A: pH1, 50° C., day 1", "value": 96.7, "unit": "%"},
      {"measurement": "concentration by HPLC, Average", "setting": "Table 3A: pH1, 50° C., day 1", "value": 0.456},
      {"measurement": "concentration by HPLC, trials #1-#3", "setting": "Table 3A: pH1, 50° C., day 1", "value": "0.438 and 0.458 and 0.471"},
      {"measurement": "Percentage of day 0 concentration", "setting": "Table 3A: pH1, 50° C., day 2", "value": 104.5, "unit": "%"},
      {"measurement": "concentration by HPLC, Average", "setting": "Table 3A: pH1, 50° C., day 2", "value": 0.492},
      {"measurement": "concentration by HPLC, trials #1-#3", "setting": "Table 3A: pH1, 50° C., day 2", "value": "0.479 and 0.485 and 0.513"},
      {"measurement": "Percentage of day 0 concentration", "setting": "Table 3A: pH1, 50° C., day 6", "value": 112.4, "unit": "%"},
      {"measurement": "concentration by HPLC, Average", "setting": "Table 3A: pH1, 50° C., day 6", "value": 0.530},
      {"measurement": "concentration by HPLC, trials #1-#3", "setting": "Table 3A: pH1, 50° C., day 6", "value": "0.505 and 0.536 and 0.549"},
      {"measurement": "Percentage of day 0 concentration", "setting": "Table 3A: pH1, 50° C., day 7", "value": 102.9, "unit": "%"},
      {"measurement": "concentration by HPLC, Average", "setting": "Table 3A: pH1, 50° C., day 7", "value": 0.485},
      {"measurement": "concentration by HPLC, trials #1-#3", "setting": "Table 3A: pH1, 50° C., day 7", "value": "0.494 and 0.465 and 0.496"},
      {"measurement": "Percentage of day 0 concentration", "setting": "Table 3A: pH1, 50° C., day 8", "value": 101.7, "unit": "%"},
      {"measurement": "concentration by HPLC, Average", "setting": "Table 3A: pH1, 50° C., day 8", "value": 0.479},
      {"measurement": "concentration by HPLC, trials #1-#3", "setting": "Table 3A: pH1, 50° C., day 8", "value": "0.488 and 0.491 and 0.459"},
      {"measurement": "Percentage of day 0 concentration", "setting": "Table 3A: pH1, 50° C., day 9", "value": 103.6, "unit": "%"},
      {"measurement": "concentration by HPLC, Average", "setting": "Table 3A: pH1, 50° C., day 9", "value": 0.488},
      {"measurement": "concentration by HPLC, trials #1-#3", "setting": "Table 3A: pH1, 50° C., day 9", "value": "0.479 and 0.496 and 0.490"},
      {"measurement": "Percentage of day 0 concentration", "setting": "Table 3B: pH 3, 50° C., day 0", "value": 100.0, "unit": "%"},
      {"measurement": "concentration by HPLC, Average", "setting": "Table 3B: pH 3, 50° C., day 0", "value": 0.491},
      {"measurement": "concentration by HPLC, trials #1-#3", "setting": "Table 3B: pH 3, 50° C., day 0", "value": "0.485 and 0.491 and 0.498"},
      {"measurement": "Percentage of day 0 concentration", "setting": "Table 3B: pH 3, 50° C., day 1", "value": 94.6, "unit": "%"},
      {"measurement": "concentration by HPLC, Average", "setting": "Table 3B: pH 3, 50° C., day 1", "value": 0.465},
      {"measurement": "concentration by HPLC, trials #1-#3", "setting": "Table 3B: pH 3, 50° C., day 1", "value": "0.467 and 0.481 and 0.446"},
      {"measurement": "Percentage of day 0 concentration", "setting": "Table 3B: pH 3, 50° C., day 2", "value": 103.8, "unit": "%"},
      {"measurement": "concentration by HPLC, Average", "setting": "Table 3B: pH 3, 50° C., day 2", "value": 0.510},
      {"measurement": "concentration by HPLC, trials #1-#3", "setting": "Table 3B: pH 3, 50° C., day 2", "value": "0.510 and 0.493 and 0.527"},
      {"measurement": "Percentage of day 0 concentration", "setting": "Table 3B: pH 3, 50° C., day 6", "value": 106.6, "unit": "%"},
      {"measurement": "concentration by HPLC, Average", "setting": "Table 3B: pH 3, 50° C., day 6", "value": 0.524},
      {"measurement": "concentration by HPLC, trials #1-#3", "setting": "Table 3B: pH 3, 50° C., day 6", "value": "0.527 and 0.491 and 0.553"},
      {"measurement": "Percentage of day 0 concentration", "setting": "Table 3B: pH 3, 50° C., day 7", "value": 97.3, "unit": "%"},
      {"measurement": "concentration by HPLC, Average", "setting": "Table 3B: pH 3, 50° C., day 7", "value": 0.478},
      {"measurement": "concentration by HPLC, trials #1-#3", "setting": "Table 3B: pH 3, 50° C., day 7", "value": "0.485 and 0.481 and 0.468"},
      {"measurement": "Percentage of day 0 concentration", "setting": "Table 3B: pH 3, 50° C., day 8", "value": 103.5, "unit": "%"},
      {"measurement": "concentration by HPLC, Average", "setting": "Table 3B: pH 3, 50° C., day 8", "value": 0.508},
      {"measurement": "concentration by HPLC, trials #1-#3", "setting": "Table 3B: pH 3, 50° C., day 8", "value": "0.490 and 0.491 and 0.544"},
      {"measurement": "Percentage of day 0 concentration", "setting": "Table 3B: pH 3, 50° C., day 13", "value": 104.1, "unit": "%"},
      {"measurement": "concentration by HPLC, Average", "setting": "Table 3B: pH 3, 50° C., day 13", "value": 0.511},
      {"measurement": "concentration by HPLC, trials #1-#3", "setting": "Table 3B: pH 3, 50° C., day 13", "value": "0.519 and 0.498 and 0.517"},
      {"measurement": "Percentage of day 0 concentration", "setting": "Table 3C: pH 5, 50° C., day 0", "value": 100.0, "unit": "%"},
      {"measurement": "concentration by HPLC, Average", "setting": "Table 3C: pH 5, 50° C., day 0", "value": 0.487},
      {"measurement": "concentration by HPLC, trials #1-#3", "setting": "Table 3C: pH 5, 50° C., day 0", "value": "0.483 and 0.498 and 0.481"},
      {"measurement": "Percentage of day 0 concentration", "setting": "Table 3C: pH 5, 50° C., day 3", "value": 103.4, "unit": "%"},
      {"measurement": "concentration by HPLC, Average", "setting": "Table 3C: pH 5, 50° C., day 3", "value": 0.504},
      {"measurement": "concentration by HPLC, trials #1-#3", "setting": "Table 3C: pH 5, 50° C., day 3", "value": "0.492 and 0.494 and 0.526"},
      {"measurement": "Percentage of day 0 concentration", "setting": "Table 3C: pH 5, 50° C., day 6", "value": 96.8, "unit": "%"},
      {"measurement": "concentration by HPLC, Average", "setting": "Table 3C: pH 5, 50° C., day 6", "value": 0.472},
      {"measurement": "concentration by HPLC, trials #1-#3", "setting": "Table 3C: pH 5, 50° C., day 6", "value": "0.459 and 0.475 and 0.481"},
      {"measurement": "Percentage of day 0 concentration", "setting": "Table 3C: pH 5, 50° C., day 10", "value": 96.9, "unit": "%"},
      {"measurement": "concentration by HPLC, Average", "setting": "Table 3C: pH 5, 50° C., day 10", "value": 0.472},
      {"measurement": "concentration by HPLC, trials #1-#3", "setting": "Table 3C: pH 5, 50° C., day 10", "value": "0.500 and 0.436 and 0.480"},
      {"measurement": "Percentage of day 0 concentration", "setting": "Table 3C: pH 5, 50° C., day 13", "value": 95.0, "unit": "%"},
      {"measurement": "concentration by HPLC, Average", "setting": "Table 3C: pH 5, 50° C., day 13", "value": 0.463}
    ]}
  ]
}
